Test results as given in PMC8049054, “Systematic Assessment of Fragment Identification for Multitarget Drug Design” (Chemmedchem, 2021).
pIC50: −log10 of the molar value.

Columns and labels:
[1] = tested on: T1, soluble epoxide hydrolase (sEH); experiment: Differential scanning fluorimetry (DSF) screen on sEH; type: binding; conditions: 50 µM reference compound, triplicates repeated 3 times
T1 construct: For the expression of sEH-H and sEH-Fl transformed E.coli BL21 (DE3) cells were grown in 5052; made in house; host or cells: E. coli BL21 (DE3)

5‐lipoxygenase (5‐LOX) [2] = biological target: T2, 5‐lipoxygenase (5‐LOX) (Homo sapiens, UniProt P09917); experiment: 5-LOX activity assay (HPLC detection of product formation); type: biochemical; conditions: mean±standard deviation of three independent experiments
T2 construct: made in house; host or cells: E. coli BL21 (DE3)
T2 sequence (P09917 1-674): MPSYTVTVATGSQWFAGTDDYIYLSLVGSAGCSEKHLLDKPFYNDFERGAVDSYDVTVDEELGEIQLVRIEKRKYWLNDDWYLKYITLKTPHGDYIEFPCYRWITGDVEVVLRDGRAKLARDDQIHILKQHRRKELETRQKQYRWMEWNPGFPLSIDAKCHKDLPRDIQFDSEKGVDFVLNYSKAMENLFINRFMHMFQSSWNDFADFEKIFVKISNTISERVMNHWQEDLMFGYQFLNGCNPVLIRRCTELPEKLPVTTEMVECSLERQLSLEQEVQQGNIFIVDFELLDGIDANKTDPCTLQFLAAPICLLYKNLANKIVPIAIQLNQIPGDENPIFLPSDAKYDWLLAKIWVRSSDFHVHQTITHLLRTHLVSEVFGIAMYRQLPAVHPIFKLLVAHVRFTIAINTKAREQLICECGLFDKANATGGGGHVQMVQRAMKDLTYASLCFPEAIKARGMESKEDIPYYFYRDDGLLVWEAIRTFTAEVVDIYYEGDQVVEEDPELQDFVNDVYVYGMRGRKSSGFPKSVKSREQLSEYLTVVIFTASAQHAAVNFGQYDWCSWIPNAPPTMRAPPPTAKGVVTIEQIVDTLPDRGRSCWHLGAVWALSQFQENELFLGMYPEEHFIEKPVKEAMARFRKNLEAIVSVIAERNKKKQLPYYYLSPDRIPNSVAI
Method: (§1) For hit validation, we employed secondary assays with orthogonal readouts to confirm fragment activities. Biochemical activity assays were chosen for the enzymes sEH, LTA4H, and 5‐LOX. […] RXRα and FXR modulation was assessed in cell‐based hybrid reporter gene assays. All ten compounds were tested at a single concentration of 500 μM in the sEH and LTA4H activity assays and with a concentration of 100 μM on 5‐LOX, RXRα, and FXR. Fragments showing an inhibition greater than 50 % (sEH‐H and LTA4H) or greater than 70 % (5‐LOX) as well as the hits determined in the DSF experiments were further characterized in full concentration‐response curves between 0.1 and 1000 μM. […] As alternative cell‐free assay we employed isothermal titration calorimetry (ITC) to determine binding affinity of the fragments towards the LBDs of both nuclear receptors. ITC was performed with a protein concentration of 50 μM and compound concentrations of 250 μM.
(§2) The 10 fragments showing dual activity in the DSF experiments were validated by functional assay screening with a fixed concentration of 500 µM in case of sEH-H and LTA4H, 100 µM in case of 5-LOX and 30 µM, 10 µM and 5 µM in case of FXR and […]
(§3) % (5-LOX) as well as the hits determined in the DSF experiments were further measured with concentrations between 1000 µM and 0.1 µM (sEH-H and LTA4H) and between 300 µM and 1 µM (5-LOX). The sEH and LTA4H activity assays were performed as triplicate and repeated 3 times. The 5-LOX activity assay was performed with one point per concentration and repeated 3 times Raw data was first analyzed in Microsoft Office Excel (2013), before IC50 curves were plotted and further analyzed using GraphPad Prism 7 and GraphPad Prism 8 for the shown graphs .
The eight approved drugs were measured in the orthogonal assay systems analogous to the fragments. […]
For the 5-LOX they […]
were measured as single point measurement in three different experiments with concentrations between 300 µM and 1 µM. For […]
Raw data was processed according to the fragments. […]

[3] = biological target: T3, soluble epoxide hydrolase (sEH) (Homo sapiens, UniProt P34913); experiment: sEH-H activity assay (fluorogenic substrate PHOME); type: biochemical; conditions: approved drug, 1-1000 µM
T3 construct: made in house; host or cells: E. coli BL21 (DE3)
T3 sequence (P34913 1-555): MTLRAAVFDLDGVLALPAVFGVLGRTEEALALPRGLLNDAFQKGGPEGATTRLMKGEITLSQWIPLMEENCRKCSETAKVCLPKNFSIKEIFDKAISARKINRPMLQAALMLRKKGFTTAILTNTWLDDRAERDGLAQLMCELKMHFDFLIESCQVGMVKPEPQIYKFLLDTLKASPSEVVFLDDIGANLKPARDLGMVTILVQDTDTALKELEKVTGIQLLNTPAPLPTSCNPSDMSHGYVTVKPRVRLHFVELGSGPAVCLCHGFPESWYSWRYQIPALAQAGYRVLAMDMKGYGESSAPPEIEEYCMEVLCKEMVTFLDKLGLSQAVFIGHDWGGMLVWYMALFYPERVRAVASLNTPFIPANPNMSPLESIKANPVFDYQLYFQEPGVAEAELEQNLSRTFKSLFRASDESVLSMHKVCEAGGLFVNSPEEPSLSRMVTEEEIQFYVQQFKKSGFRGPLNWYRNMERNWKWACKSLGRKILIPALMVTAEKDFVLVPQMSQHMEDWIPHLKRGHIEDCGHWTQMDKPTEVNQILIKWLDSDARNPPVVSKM
Method: as §1, §2, §3
The eight approved drugs were measured in the orthogonal assay systems analogous to the fragments. The approved drugs were […]
For the sEH-H and LTA4H, they were measured as triplicate in concentrations between 1000 µM and 1 µM and each measurement was repeated three times. For the 5-LOX they were measured as single point measurement in three different experiments with concentrations between 300 µM and 1 µM. For […]
Raw data was processed according to the fragments.
The sEH-H activity assay was performed adapted from Hahn et al.5 and Lukin et al.6. In short 1 µl of compound dilution in DMSO or pure DMSO (for the positive and negative control) was placed in a black 96-well plate (Thermo Scientific™ Nunc™ F96 MicroWell™ Black Polystyrene Plate) and then 89 µl of protein-mix or buffer mix (without protein as negative control) were added and the mixture was incubated for 30 min at room temperature. 10 µl of 0.6 mM 3-phenyl-cyano(6-methoxy-2-naphthalenyl)methylester-2-oxiraneacetic acid (PHOME) were added to every well. The Plate was measured every minute for 45 min. Final concentration per well was 3 nM sEH-Fl, 0.001 % Triton X-100, 25 mM Bis-tris, 0.1 mg/ml BSA, pH = 7.0, 1.6% DMSO […]

[4] = tested on: sEH, LTA4H, 5‐LOX, RXRα, FXR; experiment: DSF primary screen, statement over all five proteins; type: binding; conditions: 500 μM
From the text: For the primary screen of this fragment library, we employed differential scanning fluorimetry (DSF, also known as thermal shift). DSF is generally applicable to a large panel of protein targets and provides a robust, low‐cost screening technology for fragment‐based approaches. ^[20] All five proteins of our interest are soluble and were recombinantly expressed in Escherichia coli. We performed an initial fragment screen on all five targets by DSF. The use of a uniform screening method for all targets ensured consistent data and provided the opportunity to identify false positive hits which interfered with the screening technology. The conditions of the DSF assay were optimized for the desired screening and validated with reference compounds (Table S1 in the Supporting Information). Compounds causing a positive thermal shift ΔT m≥1.0 °C were considered as active. […]
The measurements were performed using a iCycler iQ™ Single -Color Real Time PCR device with a heat rate of 1 °C per min, an excitation wavelength of 490 nm and an emission wavelength of 570 nm. The first derivation calculated by MyiQ Op tical Software 1.0 was analyzed using Microsoft Office Excel 2013 by comparing the maxima. […]

RXRα = tested on: T4, RXRα; experiment: Differential scanning fluorimetry (DSF) screen on RXRα; type: binding; conditions: 50 µM reference compound; measured once as triplicate; no melting curve with DMSO
T4 construct: MBP (N, cleaved yes); poly-N-tag, His8-tag, TEV site (N, cleaved yes); made in house; host or cells: E. coli T7-express with pGro7 (GroEL/ES)

5‐lipoxygenase (5‐LOX) [5] = biological target: T2, 5‐lipoxygenase (5‐LOX); experiment: Differential scanning fluorimetry (DSF) screen on 5-LOX; type: binding; conditions: 100 µM reference compound; measured once as triplicate
[6] = biological target: T5, leukotriene A4 hydrolase (LTA4H) (Homo sapiens, UniProt P09960); experiment: Differential scanning fluorimetry (DSF) screen on LTA4H; type: binding; conditions: 50 µM reference compound, triplicates repeated 3 times
T5 construct: made in house; host or cells: E. coli BL21 (DE3)
T5 sequence (P09960 1-611): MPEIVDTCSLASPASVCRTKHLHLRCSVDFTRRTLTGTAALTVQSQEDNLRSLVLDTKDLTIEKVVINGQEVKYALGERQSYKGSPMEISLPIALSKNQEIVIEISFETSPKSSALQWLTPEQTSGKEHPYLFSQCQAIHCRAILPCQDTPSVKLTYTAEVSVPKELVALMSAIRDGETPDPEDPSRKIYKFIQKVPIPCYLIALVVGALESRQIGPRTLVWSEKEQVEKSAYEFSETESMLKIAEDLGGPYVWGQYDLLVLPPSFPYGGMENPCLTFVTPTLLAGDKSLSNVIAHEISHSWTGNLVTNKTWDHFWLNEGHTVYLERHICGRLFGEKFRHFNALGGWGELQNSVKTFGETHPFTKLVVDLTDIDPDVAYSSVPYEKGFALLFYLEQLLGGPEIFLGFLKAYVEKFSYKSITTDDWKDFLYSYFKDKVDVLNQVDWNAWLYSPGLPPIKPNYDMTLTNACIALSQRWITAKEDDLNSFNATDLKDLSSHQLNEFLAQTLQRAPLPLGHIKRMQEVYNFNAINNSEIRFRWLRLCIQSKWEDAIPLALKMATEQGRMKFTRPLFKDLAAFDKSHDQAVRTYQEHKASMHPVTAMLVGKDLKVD

O=C(Nc1ccc(I)cc1)NC1CCCCC1 [CIU]
TM(ref) sEH-H [1]: 62.2 ± 0.4 °C | ΔTM sEH-H ([1]; in °C): 5.6 ± 0.5

CC(C)COCC(CN(Cc1ccccc1)c1ccccc1)N1CCCC1 (stereo not shown) [Compound 15, bepridil, reference compound]
pIC50 (5‐lipoxygenase (5‐LOX) [2]): 5.49 | activity towards sEH [3]: completely loosing activity

O=C(NCc1cccnc1)c1ccc(O)cc1 [Compound 22]
activity in the DSF screen [4]: no activity

Cc1nc2ccccc2[nH]1 [Compound 24]
activity in the DSF screen [4]: no activity

CC1(C)CCC(C)(C)c2cc(C3(c4ccc(C(=O)O)cc4)OCCO3)ccc21 [SR11237]
TM(ref) RXRα (RXRα): 59.0 ± 0.0 °C

C[C@H](C#Cc1ccc(Cc2ccc(F)cc2)s1)N(O)C(N)=O [atreleuton]
TM(ref) 5-LOX (5‐lipoxygenase (5‐LOX) [5]): 63.7 ± 0.6 °C

CC(C)C[C@H](NC(=O)[C@@H](O)[C@H](N)Cc1ccccc1)C(=O)O [bestatin]
TM(ref) LTA4H [6]: 60.7 ± 0.9 °C | ΔTM LTA4H ([6]; in °C): 5.9 ± 0.7
